Measured values from patent US20070185129A1, “ACID ADDITION SALTS OF THIENOPYRANCARBOXAMIDE DERIVATIVES” (Recordati Ireland Limited, priority 2006, published 2007).

What was measured:
[1] = water solubility; format: physicochemical
[2] = target: T1, α1d receptor (Homo sapiens, UniProt P25100); experiment: selectivity for α1a receptor compared to α1d receptor; format: binding
T1 sequence (P25100 1-572): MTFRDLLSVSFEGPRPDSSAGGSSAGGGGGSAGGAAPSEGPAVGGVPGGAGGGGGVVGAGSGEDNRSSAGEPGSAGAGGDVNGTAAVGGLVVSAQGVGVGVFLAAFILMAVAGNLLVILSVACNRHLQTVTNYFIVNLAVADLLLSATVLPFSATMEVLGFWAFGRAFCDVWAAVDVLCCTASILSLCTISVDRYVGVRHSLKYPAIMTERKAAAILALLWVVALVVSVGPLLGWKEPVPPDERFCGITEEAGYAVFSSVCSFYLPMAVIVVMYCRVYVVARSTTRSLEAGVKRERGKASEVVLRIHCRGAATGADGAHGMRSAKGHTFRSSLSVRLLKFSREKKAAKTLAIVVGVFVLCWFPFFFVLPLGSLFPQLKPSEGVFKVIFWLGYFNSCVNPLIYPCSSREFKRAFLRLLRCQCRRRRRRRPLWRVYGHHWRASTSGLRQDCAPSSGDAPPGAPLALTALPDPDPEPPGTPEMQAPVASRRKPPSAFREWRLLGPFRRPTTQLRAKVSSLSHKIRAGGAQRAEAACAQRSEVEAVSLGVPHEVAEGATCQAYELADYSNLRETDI

[3] = test system: α1L receptor; details: isolated rabbit aorta model system; cited from earlier work
[4] = target: T2, α1b receptor (Homo sapiens, UniProt P35368); experiment: selectivity for α1a receptor compared to α1b receptor; format: binding
T2 sequence (P35368 1-520): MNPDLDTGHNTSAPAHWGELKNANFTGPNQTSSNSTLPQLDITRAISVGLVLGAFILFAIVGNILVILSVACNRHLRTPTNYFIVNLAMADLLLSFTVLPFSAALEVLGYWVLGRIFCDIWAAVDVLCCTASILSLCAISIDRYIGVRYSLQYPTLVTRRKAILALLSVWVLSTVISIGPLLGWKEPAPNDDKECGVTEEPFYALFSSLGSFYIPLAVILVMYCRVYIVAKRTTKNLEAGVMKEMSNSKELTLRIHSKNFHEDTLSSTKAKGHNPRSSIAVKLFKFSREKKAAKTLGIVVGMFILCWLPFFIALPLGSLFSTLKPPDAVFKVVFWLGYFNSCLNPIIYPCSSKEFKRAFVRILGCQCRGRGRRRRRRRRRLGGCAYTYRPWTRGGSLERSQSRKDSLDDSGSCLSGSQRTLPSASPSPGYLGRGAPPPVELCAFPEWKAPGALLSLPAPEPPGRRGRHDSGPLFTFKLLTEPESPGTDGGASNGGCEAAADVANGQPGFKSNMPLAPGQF

[5] = target: T3, recombinant human α1a receptor (Homo sapiens, UniProt P35348); details: cited from earlier work
T3 sequence (P35348 1-466): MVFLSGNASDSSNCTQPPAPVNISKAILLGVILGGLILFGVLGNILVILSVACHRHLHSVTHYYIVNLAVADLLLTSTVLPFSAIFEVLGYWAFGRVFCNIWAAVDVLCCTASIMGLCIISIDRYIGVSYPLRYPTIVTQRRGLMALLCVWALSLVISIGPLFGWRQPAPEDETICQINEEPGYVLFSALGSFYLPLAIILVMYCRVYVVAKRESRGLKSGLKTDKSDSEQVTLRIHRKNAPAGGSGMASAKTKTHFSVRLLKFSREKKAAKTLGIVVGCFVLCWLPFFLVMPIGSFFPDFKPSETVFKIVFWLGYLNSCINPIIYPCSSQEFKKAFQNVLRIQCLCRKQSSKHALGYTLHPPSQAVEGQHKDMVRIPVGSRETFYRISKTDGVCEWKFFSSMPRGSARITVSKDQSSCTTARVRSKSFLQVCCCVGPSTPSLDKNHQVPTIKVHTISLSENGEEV

[6] = stability of solid form; format: physicochemical
[7] = target: T4, recombinant human 5-HT1A receptor (Homo sapiens, UniProt P08908); experiment: selectivity for α1a receptor relative to 5-HT1A receptor; format: binding
T4 sequence (P08908 1-422): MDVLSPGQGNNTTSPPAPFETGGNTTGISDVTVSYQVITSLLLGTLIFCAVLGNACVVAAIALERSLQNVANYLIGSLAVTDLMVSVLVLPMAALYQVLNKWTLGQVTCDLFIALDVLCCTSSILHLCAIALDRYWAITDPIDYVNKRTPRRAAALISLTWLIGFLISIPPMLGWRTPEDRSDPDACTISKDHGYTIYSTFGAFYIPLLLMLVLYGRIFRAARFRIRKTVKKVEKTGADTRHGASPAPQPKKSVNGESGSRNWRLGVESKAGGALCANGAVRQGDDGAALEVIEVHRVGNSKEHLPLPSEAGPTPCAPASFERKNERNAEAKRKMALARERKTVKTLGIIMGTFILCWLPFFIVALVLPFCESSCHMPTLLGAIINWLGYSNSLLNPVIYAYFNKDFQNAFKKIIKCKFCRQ

COc1ccccc1N1CCN(CCCNC(=O)c2csc3c(=O)cc(C(F)(F)F)oc23)CC1.CS(=O)(=O)O [Example 2A, N-{3-[4-(2-methoxyphenyl)-1-piperazinyl]propyl}-7-oxo-5-trifluoromethyl-7H-thieno[3,2-b]pyran-3-carboxamide mesylate salt]
water solubility (in words) [1]: improved water solubility compared to the free base
solubility ([1]; water, at 25° C.): 100 mg/mL

COc1ccccc1N1CCN(CCCNC(=O)c2csc3c(=O)cc(C(F)(F)F)oc23)CC1 [Example 1, N-{3-[4-(2-methoxyphenyl)-1-piperazinyl]propyl}-7-oxo-5-trifluoromethyl-7H-thieno[3,2-b]pyran-3-carboxamide]
selectivity for α1a receptor as compared to the α1d receptor [2]: ~6 fold
functional antagonism of the α1L receptor [3]: functional antagonism
selectivity for α1a receptor as compared to the α1b receptor [4]: ~40 fold
affinity for the α1a receptor [5]: high affinity
water solubility (in words) [1]: poor water solubility
heat stability / stability (in words) [6]: heat instability
selectivity for the recombinant human α1a receptor relative to the recombinant human 5-HT1A receptor [7]: ~45 fold
